# Data published in patent US8471005B2 (Cephalon, Inc., priority 2008, dated 2013).
# Read-outs that look alike come from different tables or passages of the source.
# Columns and labels:
# ALK = target: T1, ALK (Homo sapiens, UniProt Q9UM73); test: ALK Kinase Assay (ELISA/TRF, PLC-γ substrate); format: biochemical; details: read-out: ALK Potency
# T1 construct: host or cells: baculovirus expression system
# Summary of the method: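 Time-resolved fluorescence ELISA using Eu-N1 PT66 antibody to detect phosphorylated PLC-γ (coated at 10 μg/mL). Enzyme at 30 ng/ml ALK; 15 min incubation, 37° C.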
# JAK2 = target: T2, JAK2 (Homo sapiens, UniProt O60674); test: Recombinant Human JAK2 Kinase Assay (TRF); format: biochemical; details: read-out: JAK2 Potency
# T2 construct: host or cells: baculovirus expression system
# T2 sequence (O60674 whole entry): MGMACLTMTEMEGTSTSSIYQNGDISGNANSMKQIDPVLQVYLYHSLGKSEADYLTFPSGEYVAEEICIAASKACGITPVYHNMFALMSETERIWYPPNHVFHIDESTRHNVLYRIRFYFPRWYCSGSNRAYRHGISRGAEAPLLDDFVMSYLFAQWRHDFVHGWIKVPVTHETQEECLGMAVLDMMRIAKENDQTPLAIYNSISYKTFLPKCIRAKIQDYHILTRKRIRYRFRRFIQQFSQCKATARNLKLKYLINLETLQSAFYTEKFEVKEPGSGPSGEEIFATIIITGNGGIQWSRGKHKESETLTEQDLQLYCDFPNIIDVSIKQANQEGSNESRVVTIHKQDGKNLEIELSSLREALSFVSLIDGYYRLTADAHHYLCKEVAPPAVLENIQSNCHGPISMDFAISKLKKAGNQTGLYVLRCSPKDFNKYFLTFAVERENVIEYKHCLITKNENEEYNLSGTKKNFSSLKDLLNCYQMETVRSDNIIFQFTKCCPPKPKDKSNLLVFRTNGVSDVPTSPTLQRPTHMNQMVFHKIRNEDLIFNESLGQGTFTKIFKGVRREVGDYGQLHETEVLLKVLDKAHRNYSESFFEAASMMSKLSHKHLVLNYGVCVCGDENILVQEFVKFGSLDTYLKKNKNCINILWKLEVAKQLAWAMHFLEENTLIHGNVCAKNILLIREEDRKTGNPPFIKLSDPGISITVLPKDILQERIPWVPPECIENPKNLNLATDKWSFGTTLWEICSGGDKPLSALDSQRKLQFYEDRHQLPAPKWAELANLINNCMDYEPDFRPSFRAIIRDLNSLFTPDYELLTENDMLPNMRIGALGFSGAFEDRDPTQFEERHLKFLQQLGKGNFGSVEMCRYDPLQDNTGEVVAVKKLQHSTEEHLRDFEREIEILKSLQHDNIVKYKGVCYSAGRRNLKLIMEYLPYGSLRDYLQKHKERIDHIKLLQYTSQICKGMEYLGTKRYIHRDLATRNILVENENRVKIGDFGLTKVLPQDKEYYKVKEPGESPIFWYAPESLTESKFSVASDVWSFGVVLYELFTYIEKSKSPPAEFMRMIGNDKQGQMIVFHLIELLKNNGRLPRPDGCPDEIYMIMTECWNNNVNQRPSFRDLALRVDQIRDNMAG
# Summary of the method: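 TRF read-out: Eu-N1 PY100 anti-phosphotyrosine antibody detects product. Enzyme is baculovirus-expressed JAK2 at 15 ng/ml; substrate is a biotinyl 15-mer peptide bound to Neutravidin-coated wells. Buffer 20 mM HEPES pH 7.2, 0.2 μM ATP, 1 mM MnCl2, 0.1% BSA, 2.5% DMSO final; 20 min, RT.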
# [1] = ALK kinase inhibition, 1 μM ATP
# [2] = JAK2 kinase inhibition, 0.2 μM ATP
# T1 sequence (Q9UM73 19-1620): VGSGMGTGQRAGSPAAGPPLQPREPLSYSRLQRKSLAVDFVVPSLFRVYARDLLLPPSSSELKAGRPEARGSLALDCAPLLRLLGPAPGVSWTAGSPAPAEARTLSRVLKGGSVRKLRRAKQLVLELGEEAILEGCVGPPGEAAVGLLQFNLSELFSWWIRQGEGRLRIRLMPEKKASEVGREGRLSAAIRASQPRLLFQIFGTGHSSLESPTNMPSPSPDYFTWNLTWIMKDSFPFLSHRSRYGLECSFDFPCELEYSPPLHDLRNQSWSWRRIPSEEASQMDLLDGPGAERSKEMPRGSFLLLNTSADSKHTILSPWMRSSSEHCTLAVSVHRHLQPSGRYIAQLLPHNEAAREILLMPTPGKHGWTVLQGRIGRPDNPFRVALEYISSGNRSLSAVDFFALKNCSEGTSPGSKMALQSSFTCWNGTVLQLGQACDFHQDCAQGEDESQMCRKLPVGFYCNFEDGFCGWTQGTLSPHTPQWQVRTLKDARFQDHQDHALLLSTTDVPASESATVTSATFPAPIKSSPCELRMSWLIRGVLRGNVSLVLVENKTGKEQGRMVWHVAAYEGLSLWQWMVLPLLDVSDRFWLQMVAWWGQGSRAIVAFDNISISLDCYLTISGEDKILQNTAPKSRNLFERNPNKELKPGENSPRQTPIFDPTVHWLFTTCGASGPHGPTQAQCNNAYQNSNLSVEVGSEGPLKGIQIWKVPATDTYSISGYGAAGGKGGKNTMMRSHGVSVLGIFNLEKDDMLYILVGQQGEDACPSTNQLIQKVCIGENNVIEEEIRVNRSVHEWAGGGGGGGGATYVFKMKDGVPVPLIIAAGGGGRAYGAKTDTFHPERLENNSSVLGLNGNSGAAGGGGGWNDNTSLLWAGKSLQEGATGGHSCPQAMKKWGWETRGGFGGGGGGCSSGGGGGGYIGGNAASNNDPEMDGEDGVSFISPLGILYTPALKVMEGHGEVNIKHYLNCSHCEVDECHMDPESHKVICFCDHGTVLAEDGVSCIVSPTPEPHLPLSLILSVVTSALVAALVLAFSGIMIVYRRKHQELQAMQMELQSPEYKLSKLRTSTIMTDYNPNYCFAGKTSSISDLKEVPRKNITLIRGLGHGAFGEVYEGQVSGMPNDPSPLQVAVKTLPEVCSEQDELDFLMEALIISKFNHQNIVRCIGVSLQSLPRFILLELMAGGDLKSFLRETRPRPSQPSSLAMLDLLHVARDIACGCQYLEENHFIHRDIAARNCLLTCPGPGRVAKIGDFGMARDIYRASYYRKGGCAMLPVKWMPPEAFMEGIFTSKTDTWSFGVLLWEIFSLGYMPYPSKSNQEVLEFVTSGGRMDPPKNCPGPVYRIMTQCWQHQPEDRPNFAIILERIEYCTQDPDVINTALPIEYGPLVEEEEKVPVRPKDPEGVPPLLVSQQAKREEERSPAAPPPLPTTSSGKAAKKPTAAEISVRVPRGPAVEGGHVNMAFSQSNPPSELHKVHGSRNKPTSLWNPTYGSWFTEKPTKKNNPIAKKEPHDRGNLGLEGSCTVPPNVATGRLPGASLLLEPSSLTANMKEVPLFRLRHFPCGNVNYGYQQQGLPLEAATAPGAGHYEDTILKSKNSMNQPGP
Structure (SMILES),IC50 (ALK; ALK Kinase Inhibition),IC50 (JAK2; JAK2 Kinase Inhibition),IC50 (ALK; [1]),IC50 (JAK2; [2])
"CC(=O)N1CCc2ccc(Nc3ncc4ccc(-c5cccc(S(=O)(=O)NC(C)(C)C)c5)n4n3)cc21 [Example 1372, 3-[2-(1-Acetyl-2,3-dihydro-1H-indol-6-ylamino)-pyrrolo[2,1-f][1,2,4]triazin-7-yl]-N-tert-butyl-benzenesulfonamide]",> 10 µM,< 0.1 µM,,
"CN1CCN(C2CCCN(c3ccc(Nc4ncc5ccc(-c6ccc(S(C)(=O)=O)cc6)n5n4)cc3)C2)CC1 (centres unmarked) [Example 351, [7-(4-Methanesulfonyl-phenyl)-pyrrolo[2,1-f][1,2,4]triazin-2-yl]-{4-[3-(4-methyl-piperazin-1-yl)-piperidin-1-yl]-phenyl}-amine]",0.1 to 1 µM,< 0.1 µM,,
"N#CCCc1cccc(-c2ccc3cnc(Nc4ccc(N5CCOCC5)cc4)nn23)c1 [Example 1145, 3-{3-[2-(4-Morpholin-4-yl-phenylamino)-pyrrolo[2,1-f][1,2,4]triazin-7-yl]-phenyl}-propionitrile]",,,0.1 to 1 µM,< 0.1 µM
"CC(C)(C)OCc1cccc(-c2ccc3cnc(Nc4cccc(N5CCOCC5)c4)nn23)c1 [Example 1560, [7-(3-tert-Butoxymethyl-phenyl)-pyrrolo[2,1-f][1,2,4]triazin-2-yl]-(3-morpholin-4-yl-phenyl)-amine]",> 10 µM,< 0.1 µM,,
"COc1ccc(-c2ccc3cnc(Nc4cncc(C(N)=O)c4)nn23)cn1 [Example 667, 5-[7-(6-Methoxy-pyridin-3-yl)-pyrrolo[2,1-f][1,2,4]triazin-2-ylamino]-nicotinamide]",,,0.1 to 1 µM,< 0.1 µM
"O=C(O)c1ccc(-c2ccc3cnc(Nc4ccc(N5CCOCC5)cc4)nn23)cc1 [Example 45, 4-[2-(4-Morpholin-4-yl-phenylamino)-pyrrolo[2,1-f][1,2,4]triazin-7-yl]-benzoic acid]",> 10 µM,< 0.1 µM,,
"O=S(=O)(CC1CC1)c1cccc(-c2ccc3cnc(Nc4ccc5nc[nH]c5c4)nn23)c1 [Example 1319, (3H-Benzimidazol-5-yl)-[7-(3-cyclopropylmethanesulfonyl-phenyl)-pyrrolo[2,1-f][1,2,4]triazin-2-yl]-amine]",,,1 to 10 µM,< 0.1 µM
"COc1ccc(-c2ccc3cnc(Nc4ccc(C(=O)N5CCN(C)CC5)cc4)nn23)cn1 [Example 1420, {4-[7-(6-Methoxy-pyridin-3-yl)-pyrrolo[2,1-f][1,2,4]triazin-2-ylamino]-phenyl}-(4-methyl-piperazin-1-yl)-methanone]",1 to 10 µM,< 0.1 µM,,
"CS(=O)(=O)c1cccc(-c2ccc3cnc(Nc4ccc(C5CCN(CC(N)=O)CC5)cc4)nn23)c1 [Example 1434, 2-(4-{4-[7-(3-Methanesulfonyl-phenyl)-pyrrolo[2,1-f][1,2,4]triazin-2-ylamino]-phenyl}-piperidin-1-yl)-acetamide]",0.1 to 1 µM,< 0.1 µM,,
"CN1CCCC1COc1cccc(Nc2ncc3ccc(-c4cnn(C)c4)n3n2)c1 (centres unmarked) [Example 1007, [7-(1-Methyl-1H-pyrazol-4-yl)-pyrrolo[2,1-f][1,2,4]triazin-2-yl]-[3-(1-methyl-pyrrolidin-2-ylmethoxy)-phenyl]-amine]",,,0.1 to 1 µM,< 0.1 µM
"CN1CCOc2ccc(Nc3ncc4ccc(-c5cccnc5)n4n3)cc21 [Example 642, (4-Methyl-3,4-dihydro-2H-benzo[1,4]oxazin-6-yl)-(7-pyridin-3-yl-pyrrolo[2,1-f][1,2,4]triazin-2-yl)-amine]",,,1 to 10 µM,< 0.1 µM
"O=C(c1ccc(Nc2ncc3ccc(-c4cccc(Cl)c4)n3n2)cc1)N1CCOCC1 [Example 316, {4-[7-(3-Chloro-phenyl)-pyrrolo[2,1-f][1,2,4]triazin-2-ylamino]-phenyl}-morpholin-4-yl-methanone]",0.1 to 1 µM,< 0.1 µM,,
"Cc1ccc(S(=O)(=O)N(C)C)cc1-c1ccc2cnc(Nc3ccc(N4CCN(C)CC4)cc3)nn12 [Example 74, 4,N,N-Trimethyl-3-{2-[4-(4-methyl-piperazin-1-yl)-phenylamino]-pyrrolo[2,1-f][1,2,4]triazin-7-yl}-benzenesulfonamide]",0.1 to 1 µM,< 0.1 µM,,
"CN1C(=O)COc2cc(Nc3ncc4ccc(-c5cccc(S(=O)(=O)NC(C)(C)C)c5)n4n3)ccc21 [Example 648, N-tert-Butyl-3-[2-(4-methyl-3-oxo-3,4-dihydro-2H-benzo[1,4]oxazin-7-ylamino)-pyrrolo[2,1-f][1,2,4]triazin-7-yl]-benzenesulfonamide]",,,0.1 to 1 µM,< 0.1 µM
"c1cc(Sc2ccc3cnc(Nc4ccc(N5CCOCC5)cc4)nn23)ccn1 [Example 1116, (4-Morpholin-4-yl-phenyl)-[7-(pyridin-4-ylsulfanyl)-pyrrolo[2,1-f][1,2,4]triazin-2-yl]-amine]",,,1 to 10 µM,< 0.1 µM
"CN1CCN(c2ccc(Nc3ncc4ccc(-c5cccc(S(C)(=O)=O)c5)n4n3)cc2)CC1 [Example 82, [7-(3-Methanesulfonyl-phenyl)-pyrrolo[2,1-f][1,2,4]triazin-2-yl]-[4-(4-methyl-piperazin-1-yl)-phenyl]-amine]",0.1 to 1 µM,< 0.1 µM,,
"COCCN1CCc2ccc(Nc3ncc4ccc(-c5ccc(S(C)(=O)=O)cc5)n4n3)cc2CC1 [Example 89, [7-(4-Methanesulfonyl-phenyl)-pyrrolo[2,1-f][1,2,4]triazin-2-yl]-[3-(2-methoxy-ethyl)-2,3,4,5-tetrahydro-1H-benzo[d]azepin-7-yl]-amine]",0.1 to 1 µM,< 0.1 µM,,

# Results, then the molecule that gave them:
IC50 (ALK; ALK Kinase Inhibition),IC50 (JAK2; JAK2 Kinase Inhibition),IC50 (ALK; [1]),IC50 (JAK2; [2]),Structure (SMILES)
,,< 0.1 µM,0.1 to 1 µM,"COc1cc2c(cc1Nc1ncc3ccc(-c4ccccc4N(C)S(C)(=O)=O)n3n1)CN(CC(N)=O)C2 [Example 869, 2-(5-{7-[2-(Methanesulfonyl-methyl-amino)-phenyl]-pyrrolo[2,1-f][1,2,4]triazin-2-ylamino}-6-methoxy-1,3-dihydro-isoindol-2-yl)-acetamide]"
,,< 0.1 µM,< 0.1 µM,"COc1cc(N2CCN(C[C@H](C)O)CC2)ccc1Nc1ncc2ccc(-c3cc(Cl)ccc3OC)n2n1 [Example 755, (S)-1-(4-{4-[7-(5-Chloro-2-methoxy-phenyl)-pyrrolo[2,1-f][1,2,4]triazin-2-ylamino]-3-methoxy-phenyl}-piperazin-1-yl)-propan-2-ol]"
< 0.1 µM,1 to 10 µM,,,"COc1cc(C2CCN(CC(N)=O)CC2)ccc1Nc1ncc2ccc(-c3cccc4c3OC(F)(F)O4)n2n1 [Example 1533, 2-(4-{4-[7-(2,2-Difluoro-benzo[1,3]dioxol-4-yl)-pyrrolo[2,1-f][1,2,4]triazin-2-ylamino]-3-methoxy-phenyl}-piperidin-1-yl)-acetamide]"
,,0.1 to 1 µM,0.1 to 1 µM,"COc1cc(N2CCN(c3ccccn3)CC2)ccc1Nc1ncc2ccc(-c3ccccc3OC)n2n1 [Example 994, [7-(2-Methoxy-phenyl)-pyrrolo[2,1-f][1,2,4]triazin-2-yl]-[2-methoxy-4-(4-pyridin-2-yl-piperazin-1-yl)-phenyl]-amine]"
,,0.1 to 1 µM,> 10 µM,"COc1c(Nc2ncc3ccc(-c4ccccc4N(C)S(C)(=O)=O)n3n2)cccc1C(=O)N1CCN(CCO)CC1 [Example 1232, N-[2-(2-{3-[4-(2-Hydroxy-ethyl)-piperazine-1-carbonyl]-2-methoxy-phenylamino}-pyrrolo[2,1-f][1,2,4]triazin-7-yl)-phenyl]-N-methyl-methanesulfonamide]"
,,< 0.1 µM,< 0.1 µM,"COc1cc2c(cc1Nc1ncc3ccc(-c4ccccc4OC)n3n1)CN(C1COC1)C2 [Example 850, (6-Methoxy-2-oxetan-3-yl-2,3-dihydro-1H-isoindol-5-yl)-[7-(2-methoxy-phenyl)-pyrrolo[2,1-f][1,2,4]triazin-2-yl]-amine]"
1 to 10 µM,< 0.1 µM,,,"COc1ccccc1-c1ccc2cnc(Nc3ccc4[nH]ccc4c3)nn12 [Example 170, (1H-Indol-5-yl)-[7-(2-methoxy-phenyl)-pyrrolo[2,1-f][1,2,4]triazin-2-yl]-amine]"
,,0.1 to 1 µM,< 0.1 µM,"CN1CCC(c2ccc(Nc3ncc4ccc(-c5cccc(S(C)(=O)=O)c5)n4n3)cc2)CC1 [Example 1120, [7-(3-Methanesulfonyl-phenyl)-pyrrolo[2,1-f][1,2,4]triazin-2-yl]-[4-(1-methyl-piperidin-4-yl)-phenyl]-amine]"
,,< 0.1 µM,0.1 to 1 µM,"COc1cc(C2CCN(CC(N)=O)C2)ccc1Nc1ncc2ccc(-c3ccccc3N(C)S(C)(=O)=O)n2n1 (racemic) [Example 837, (±)-2-[3-(4-{7-[2-(Methanesulfonyl-methyl-amino)-phenyl]-pyrrolo[2,1-f][1,2,4]triazin-2-ylamino}-3-methoxy-phenyl)-pyrrolidin-1-yl]-acetamide]"
,,> 10 µM,> 10 µM,"COc1cc(C2CCN(C(=O)OC(C)(C)C)CC2)ccc1Nc1ncc2ccc(-c3ccccc3OC)n2n1 [Example 817, 4-{3-Methoxy-4-[7-(2-methoxy-phenyl)-pyrrolo[2,1-f][1,2,4]triazin-2-ylamino]-phenyl}-piperidine-1-carboxylic acid tert-butyl ester]"
,,< 0.1 µM,< 0.1 µM,"COc1ccccc1-c1ccc2cnc(Nc3ccc(N4CCN(C)CC4)cc3Cl)nn12 [Example 508, [2-Chloro-4-(4-methyl-piperazin-1-yl)-phenyl]-[7-(2-methoxy-phenyl)-pyrrolo[2,1-f][1,2,4]triazin-2-yl]-amine]"
